Results as given in US20160025704A1, “METHODS FOR IDENTIFYING NEUROPROTECTIVE PKC ACTIVATORS” (priority 2013, published 2016).

Tests used:
[1] = Internal toxicity study: Clinical Chemistry Panel & Hematology Panel; assay type: in vivo
Method: Internal tests measuring various biological markers were performed 24 hours after administering a PKC activator (bryostatin, cyclopropanated arachidonic acid, DCPLA, and DHACP6) at 10× the therapeutic dose. The results are shown below in Tables 5-7.

[2] = Bryostatin levels in plasma and brain after intravenous injection; assay type: in vivo, mice
Method: Measurements of bryostatin were analyzed at different time points subsequent to administration of a high dose of bryostatin (114 μg/m2). […] The plasma/brain ratio can be greater than 30.
Protocol: Male C57BL/6M mice (15-20 g, Charles River) were acclimatized for 7-8 days in a non-enriched environment, three mice per cage. Bryostatin (Tocris) was dissolved in DMSO, diluted into 0.9% saline, and injected into the tail vein at doses of 10 and 15 μg/m2. After a fixed period, the mice were anesthetized with CO2 and the brain was frozen on dry ice. Blood was mixed with 0.2 ml 1 mM EDTA in PBS, centrifuged at 100 g for 30 min, and plasma was frozen on dry ice. In some experiments, blood lymphocyte fractions were collected using Ficoll-Paque Plus reagent using the procedure recommended by the manufacturer. All animal procedures were approved by the institutional IACUC.
Bryostatin was injected into the tail vein of C57BL/6N mice at 10 and 15 μg/m2 (equivalent to 3.50 and 5.25 μg/kg), and brain PKC-ε concentration was measured using Western blots. Brain PKC-ε activation was biphasic, peaking at 0.5 h and slowly declined toward resting levels, even though bryostatin levels continued to increase. This is consistent with the short-lived activation of PKC established previously. […] The bryostatin concentration at 0.5 h was 0.029 nM.

HCN-2 cells = test: Synaptogenesis in HCN-2 cells; assay type: cell-based, human; conditions: 10 days
Method: FIG. 9 illustrates that activation of PKC-ε induces synaptogenesis in HCN-2 cells. The HCN-2 cell line was derived from cortical tissue removed from a patient undergoing hemispherectomy for intractable seizures associated with Rasmussen's encephalitis. The cells were treated with either DCPLA-methyl ester or bryostatin-1 for 10 days. […] Thus, PKC-ε activation can induce synaptogenesis in both embryonic and adult neuronal cells.

cerebral ischemia rats = test: Pyramidal cells, BDNF and synapses in dorsal hippocampal CA1 area after cerebral ischemia; assay type: in vivo; conditions: 15 μg/m^2 tail vein for 5 weeks beginning 24 hours after ischemic/hypoxic event
Method: Protocol: Rats were administered bryostatin-1 (15 μg/m^2, tail vein injection) for 5 weeks beginning 24 hours after the end of the ischemic/hypoxic event. […] Non-treated groups received the same vehicle volumes, mechanism of delivery, and frequency of administration as the treated groups.

[3] = tested on: healthy brown Norway rats; test: Learning, memory and mushroom spine synapses in healthy rats, water maze training; assay type: in vivo; design: learning acquisition: dose or concentration left out as unconfirmed
Source text: Protocol: Non-disease, healthy brown Norway rats (at 4-5 months old) were used in this study. […] (Nv=naîve controls; Sw=swim controls; Mz=water maze treatment; and Mz/Br=water maze treatment plus bryostatin treatment).

HuC and HuD proteins = test: Dendritic spines, presynaptic vesicles and HuC/HuD nuclear export in healthy rats after water maze training; assay type: in vivo; conditions: 10 μg/kg body weight intraperitoneal, 3 doses every other day; two days after 6-days of training
Method: Protocol: Non-diseased, healthy brown Norway rats (at 4-5 months old) were used in this study. Two days after 6-days of training, increases in dendritic spines (a, b) and presynaptic vesicle concentration (a, d) within unchanged axonal bouton density (a, c) were correlated with an increase in the nuclear export of HuC and HuD proteins into the dendritic shaft as compared with naive and swim controls (a, e). Those changes were enhanced with bryostatin treatment (10 μg/kg body weight, intraperitoneal injection, 3 doses every other day). Nv=naîve controls; Sw=swim controls; Mz=water maze treatment; and Mz/Br=water maze treatment plus bryostatin treatment).

[4] = i.v. 150 μg/m^2 = 10 × Therapeutic Dose, 24 hours, normalized to Control
[5] = i.v. 150 μg/m^2 = 10 × Therapeutic Dose, 24 hours, normalized to Normal
[6] = 10 mg/kg body weight intraperitoneal, 3 doses every other days, during water maze training

CCC/C=C/C=C/C(=O)O[C@H]1/C(=C/C(=O)OC)C[C@H]2C[C@H]([C@@H](C)O)OC(=O)C[C@H](O)C[C@@H]3C[C@H](OC(C)=O)C(C)(C)[C@](O)(C[C@@H]4C/C(=C/C(=O)OC)C[C@H](/C=C/C(C)(C)[C@]1(O)O2)O4)O3 [Bryostatin, bryostatin-1]
levels of biological markers as compared to normal levels (toxicity) ([1]; 24 hours after administering 10× the therapeutic dose, summary of Tables 5-7): did not demonstrate statistically significant differences in levels of biological markers as compared to normal levels
ALB (Albumin) [1, 4]: 91.1 ± 0.8
ALP (Alkaline phosphatase) [1, 4]: 62.8 ± 10.0
ALT (Alanine aminotransferase) [1, 4]: 63.6 ± 3.6
AST (Aspartate aminotransferase) [1, 4]: 75.2 ± 11.3
BUN (Blood urea nitrogen) [1, 4]: 117.0 ± 4.5
CA (Calcium) [1, 4]: 89.2 ± 6.1
CO2-LC (Bicarbonate) [1, 4]: 91.1 ± 4.2
CREAT (Creatinine) [1, 4]: 80.7 ± 3.5
GLU (Glucose) [1, 4]: 77.6 ± 8.4
K (Potassium) [1, 4]: 101.0 ± 3.6
NA (Sodium) [1, 4]: 94.1 ± 1.9
TBILI (Total bilirubin) [1, 4]: 78.2 ± 13.0
TPROT (Total protein) [1, 4]: 91.3 ± 2.8
BA (Basophils) [1, 5]: 300.0 ± 200.0
EO (Eosinophils) [1, 5]: 375.0 ± 250.0
HCT (Hematocrit) [1, 5]: 97.3 ± 21.9
Hb (Hemoglobin) [1, 5]: 83.4 ± 19.5
LY (Lymphocytes) [1, 5]: 134.4 ± 55.1
MCH (Mean corpuscular hemoglobin) [1, 5]: 86.7 ± 4.9
MCHC (Mean corpuscular hemoglobin concentration) [1, 5]: 85.1 ± 2.8
MCV (Mean corpuscular volume) [1, 5]: 101.8 ± 2.8
MO (Monocytes) [1, 5]: 133.3 ± 50.0
MPV (Mean platelet volume) [1, 5]: 96.2 ± 2.4
NE (Neutrophils) [1, 5]: 144.8 ± 55.1
PLT (Platelet count) [1, 5]: 109.4 ± 43.9
RBC (Red Blood Cells) [1, 5]: 95.3 ± 20.0
RDW (Red cell distribution width) [1, 5]: 106.8 ± 6.2
WBC (White blood cells) [1, 5]: 142.3 ± 57.3
brain bryostatin relative to PKC downregulation ([2]; FIG. 2, brain versus plasma): below PKC downregulation
plasma/brain ratio ([2]; single intravenous injection, 114 μg/m2, mice): greater than 30
half-life in the brain as compared to plasma ([2]; single intravenous injection, high dose 114 μg/m2, mice): extremely long half-life in the brain as compared to in plasma
bryostatin concentration at 0.5 h ([2]; tail vein 10 and 15 μg/m2, C57BL/6N mice, 0.5 h): 0.029 nM
differentiation, neuronal branching and punctate colocalization of PSD-95 and synaptophysin (HCN-2 cells): significant differentiation with neuronal branching and increased punctate colocalization of PSD-95 and synaptophysin
immunofluorescence intensity of BDNF (cerebral ischemia rats): induced an increase in the immunofluorescence intensity of brain-derived neurotrophic factor (BDNF)
loss of dendritic spines and synapses (cerebral ischemia rats): protected the loss of dendritic spines and synapses
neuronal loss (cerebral ischemia rats; 9 days after last dose): prevented neuronal loss
memory retention [3, 6]: promoted
memory-specific induction of mushroom spine synapses [3, 6]: promotes memory-specific induction of mushroom spine synapses
non-mushroom spine density in naïve rats ([3]; Bryostatin alone, no water maze): increased non-mushroom spine density
learning acquisition ([3]; intraperitoneal, 3 doses every other days, during water maze training): promoted learning acquisition
training-induced increases in dendritic spines, presynaptic vesicle concentration and nuclear export of HuC and HuD proteins (HuC and HuD proteins): enhanced
